Results: patent US7138361B2, “Herbicidal heterocycles” (E. I. du Pont de Nemours and Company, priority 2000, dated 2006)

What was measured:
Type in all cases: in vivo
[1] = system: redroot pigweed (Amaranthus retroflexus); assay: Test A preemergence, soil drench; settings: approx. eleven days
Method: (§1) Seeds of barnyardgrass (Echinochloa crus-galli), crabgrass (Digitaria spp.), giant foxtail (Setaria viridis), morning glory (Ipomoea spp.), redroot pigweed (Amaranthus retroflexus) and velvetleaf (Abutilon theophrasti) were planted into a sandy loam soil and treated preemergence by soil drench with test chemicals formulated in a non-phytotoxic solvent mixture which included a surfactant. At the same time, these crop and weed species were also treated postemergence sprayed to runoff with test chemicals formulated in the same manner. Plants ranged in height from two to eighteen cm and were in the one- to two-leaf stage for the postemergence treatment. Treated plants and untreated controls were maintained in a greenhouse for approximately eleven days, after which time all treated plants were compared to untreated controls and visually evaluated for injury. Plant response ratings, summarized in Table A, are based on a 0 to 10 scale where 0 is no effect and 10 is complete control. A dash (-) response means no test results.

[2] = system: crabgrass (Digitaria spp.); assay: Test A preemergence, soil drench; settings: approx. eleven days
Method: as §1

[3] = system: barnyardgrass (Echinochloa crus-galli); assay: Test A preemergence, soil drench; settings: approx. eleven days
Method: as §1

[4] = system: morning glory (Ipomoea spp.); assay: Test A preemergence, soil drench; settings: Morningglory, approx. eleven days
Method: as §1

[5] = system: velvetleaf (Abutilon theophrasti); assay: Test A preemergence, soil drench; settings: approx. eleven days
Method: as §1

[6] = system: giant foxtail (Setaria viridis); assay: Test A preemergence, soil drench; settings: approx. eleven days
Method: as §1

[7] = system: morning glory (Ipomoea spp.); assay: Test A postemergence, sprayed to runoff; design: scale not given here; settings: Morningglory, approx. eleven days
Method: as §1

[8] = system: velvetleaf (Abutilon theophrasti); assay: Test A postemergence, sprayed to runoff; design: scale not given here; settings: approx. eleven days
Method: as §1

| Structure (SMILES) | Plant response rating (visual injury vs untreated controls) ([1]; Rate 500 g/ha) | Plant response rating (visual injury vs untreated controls) ([1]; Rate 2000 g/ha) | Plant response rating (visual injury vs untreated controls) ([2]; Rate 500 g/ha) | Plant response rating (visual injury vs untreated controls) ([2]; Rate 2000 g/ha) | Plant response rating (visual injury vs untreated controls) ([3]; Rate 500 g/ha) | Plant response rating (visual injury vs untreated controls) ([3]; Rate 2000 g/ha) | Plant response rating (visual injury vs untreated controls) ([4]; Rate 500 g/ha) | Plant response rating (visual injury vs untreated controls) ([4]; Rate 2000 g/ha) | Plant response rating (visual injury vs untreated controls) ([5]; Rate 500 g/ha) | Plant response rating (visual injury vs untreated controls) ([5]; Rate 2000 g/ha) | Plant response rating (visual injury vs untreated controls) ([6]; Rate 500 g/ha) | Plant response rating (visual injury vs untreated controls) ([6]; Rate 2000 g/ha) | Plant response rating (visual injury vs untreated controls) ([7]; Rate 500 g/ha) | Plant response rating (visual injury vs untreated controls) ([7]; Rate 2000 g/ha) | Plant response rating (visual injury vs untreated controls) ([8]; Rate 500 g/ha) | Plant response rating (visual injury vs untreated controls) ([8]; Rate 2000 g/ha) | other results |
| --- | --- | --- | --- | --- | --- | --- | --- | --- | --- | --- | --- | --- | --- | --- | --- | --- | --- |
| CC(C)(C)c1ccn(C2CCN(c3cccc(C(F)(F)F)c3)C2=O)n1 (stereo not shown) [Example 3, 3-[3-(1,1-dimethylethyl)-1H-pyrazol-1-yl]-1-[3-(trifluoromethyl)phenyl]-2-pyrrolidinone] | – | – | – | – | – | – | – | – | – | – | – | – | – | – | – | – | Plant response rating (visual injury vs untreated controls) ([1]; Rate 250 g/ha): 100; Plant response rating (visual injury vs untreated controls) ([1]; Rate 1000 g/ha): 100; Plant response rating (visual injury vs untreated controls) ([2]; Rate 250 g/ha): 100; Plant response rating (visual injury vs untreated controls) ([2]; Rate 1000 g/ha): 100; Plant response rating (visual injury vs untreated controls) ([3]; Rate 250 g/ha): 100; Plant response rating (visual injury vs untreated controls) ([3]; Rate 1000 g/ha): 100; Plant response rating (visual injury vs untreated controls) ([4]; Rate 250 g/ha): 0; Plant response rating (visual injury vs untreated controls) ([4]; Rate 1000 g/ha): 0; Plant response rating (visual injury vs untreated controls) ([5]; Rate 250 g/ha): 0; Plant response rating (visual injury vs untreated controls) ([5]; Rate 1000 g/ha): 0; Plant response rating (visual injury vs untreated controls) ([6]; Rate 250 g/ha): 100; Plant response rating (visual injury vs untreated controls) ([6]; Rate 1000 g/ha): 100; Plant response rating (visual injury vs untreated controls) ([7]; Rate 250 g/ha): 10; Plant response rating (visual injury vs untreated controls) ([7]; Rate 1000 g/ha): 10; Plant response rating (visual injury vs untreated controls) ([8]; Rate 250 g/ha): 0; Plant response rating (visual injury vs untreated controls) ([8]; Rate 1000 g/ha): 0 |
| CC(C)(C)c1ccn(C2SCN(c3cccc(C(F)(F)F)c3)C2=O)n1 (stereo not shown) [Compound 1] | 100 | 100 | 90 | 100 | 90 | 100 | 10 | 80 | 10 | 70 | 90 | 100 | 90 | 90 | 10 | 30 | – |
| CCC(C)c1nn(C2CCN(c3cccc(C(F)(F)F)c3)C2=O)cc1Cl (stereo not shown) [Compound 13] | 80 | 100 | 0 | 80 | 0 | 10 | 0 | 20 | 0 | 0 | 20 | 90 | 0 | 0 | 0 | 0 | – |
| CC(C)(C)c1ccn(C2OCN(c3cccc(C(F)(F)F)c3)C2=O)n1 (stereo not shown) [compound 9] | 100 | 100 | 90 | 100 | 100 | 100 | 0 | 0 | 20 | 10 | 100 | 100 | 10 | 10 | 0 | 40 | – |
| O=C1C(n2ccc(C3CC3)n2)OCN1c1cccc(C(F)(F)F)c1 (stereo not shown) [Compound 28] | 100 | 100 | 90 | 100 | 100 | 100 | 0 | 0 | 10 | 10 | 100 | 100 | 10 | 20 | 0 | 50 | – |
| O=C1C(n2cccn2)CCN1c1cccc(C(F)(F)F)c1 (stereo not shown) [Compound 15] | 30 | 100 | 80 | 100 | 10 | 10 | 0 | 0 | 30 | 100 | 50 | 100 | 30 | 20 | 0 | 10 | – |
| CC1CCc2cn(C3CCN(c4cccc(C(F)(F)F)c4)C3=O)nc21 (stereo not shown) [Compound 11] | 100 | 100 | 100 | 100 | 100 | 100 | 0 | 0 | 0 | 20 | 100 | 100 | 10 | 10 | 0 | 0 | – |
| O=C1C(n2cc(Cl)c(C3CC3)n2)CCN1c1cccc(C(F)(F)F)c1 (stereo not shown) [Compound 12] | 0 | 40 | 0 | 60 | 0 | 0 | 0 | 0 | 0 | 0 | 0 | 30 | 0 | 0 | 0 | 0 | – |
| CC1(C)CCc2cn(C3CCN(c4cccc(C(F)(F)F)c4)C3=O)nc21 (stereo not shown) [Compound 10] | 100 | 100 | 90 | 100 | 100 | 100 | 0 | 20 | 20 | 10 | 90 | 100 | 10 | 20 | 0 | 50 | – |
| Cc1ccn(C2CCN(c3cccc(C(F)(F)F)c3)C2=O)n1 (stereo not shown) [Compound 16] | 80 | 100 | 100 | 100 | 10 | 70 | 0 | 20 | 10 | 100 | 80 | 90 | 20 | 20 | 0 | 20 | – |
